For this assay, the target named is T1, Angiotensin II type-1 receptor (AT1) (Homo sapiens, UniProt P30556).
T1 construct: gene AGTR1
T1 sequence (P30556 1-359): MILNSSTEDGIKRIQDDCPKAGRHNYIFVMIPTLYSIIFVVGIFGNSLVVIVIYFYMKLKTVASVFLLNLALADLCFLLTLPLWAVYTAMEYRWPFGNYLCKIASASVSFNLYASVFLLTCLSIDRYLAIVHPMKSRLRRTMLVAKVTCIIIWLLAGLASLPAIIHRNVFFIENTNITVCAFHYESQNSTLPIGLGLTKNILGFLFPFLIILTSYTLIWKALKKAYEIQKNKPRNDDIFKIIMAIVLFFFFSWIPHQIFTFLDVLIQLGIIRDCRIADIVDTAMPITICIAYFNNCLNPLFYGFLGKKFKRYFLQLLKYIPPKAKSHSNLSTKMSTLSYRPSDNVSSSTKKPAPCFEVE
Briefly: FLIPR calcium influx assay in HEK293/Ga15/AT1 cells, angiotensin II stimulated. Type of assay: cell-based.

The structures appear in SMILES notation.

`Cc1cc(OC(=O)c2c(C)cc(OC(=O)c3c(C)cc(O)cc3O)cc2O)cc(O)c1C(=O)O` [gyrophoric acid]: the IC50 is 29.8 µM.

These data come from publication PMC6838339, “Discovery of Novel Multi-target Inhibitor of angiotensin type 1 receptor and neprilysin inhibitors from Traditional Chinese Medicine” (Scientific Reports, 2019).
